For 29 compounds, IC50 results are on record in US8673908B2, “Kynurenine production inhibitor” (Kyowa Hakko Kirin Co., Ltd., priority 2008, dated 2014).

Each structure is given as a SMILES string.

In this experiment the test system is kynurenine production in IFN-γ-treated KATO-III cells. Description: Inhibitory activity on kynurenine production (Test Example 1). The class given is cell-based. Particulars: Homo sapiens, IFN-γ treatment, culture for 96 hours, read-out: IC50 value, inhibition of kynurenine production. How it is done:
This assay was performed according to a method modified from the method described in the Journal of Biological Chemistry (J. Biol. Chem.), vol. 263, pp. 2041-2048 (1988). Culture of KATO-III derived from human gastric cancer cells was performed by use of RPMI 1640 (GIBCO, 11875) supplemented with 10 vol % FBS (GIBCO, 10091-148, lot. 665285). 1 μL of a DMSO solution of the test substance was diluted with 199 μL of the culture medium, and the diluted solution was added to wells of a 384 well plate (10 μL/well). Then, IFN-γ (Sigma, 1-3265) was added to the culture medium so that the concentration of IFN-γ was 31.25 ng/mL, and the KATO-III cells were suspended at 50,000 cells/ml, in the culture medium. 40 μL of the suspension was added to each well (2,000 cells/well), and culture of the KATO-III cells was performed at 37° C. under a 5% CO2 atmosphere for 96 hours. The final concentration of DMSO was limited to 0.1 vol % or less so that DMSO itself might not affect the kynurenine concentration measured by this assay. After the culture, 10 μL of a 30 w/v % aqueous trichloroacetic acid solution was added to each well, and incubation was performed at 65° C. for 30 minutes. The plate was centrifuged at 2,500×g for 5 minutes, and then 15 μL of the supernatant in each well was transferred into another 384 well plate. To each of the transferred supernatants, 15 μL of a 2 w/v % solution of p-dimethylaminobenzaldehyde in acetic acid was added, incubation was performed at 65° C. for 20 minutes, and then the absorbance at 480 nm was measured.
[formula] Sample: the absorbance value of the well to which a DMSO solution containing the test substance was added and in which cells were treated with IFN-γ. Blank: the absorbance value of the well to which only DMSO, not the test substance was added and in which cells were treated with IFN-γ. Control: the absorbance value of the well to which only DMSO, not the test substance was added and in which cells were not treated with IFN-γ.
In this assay, expression of IDO in KATO-III cells is induced by IFN-γ treatment and then kynurenine in the culture medium is quantified. It is known that the kynurenine concentration in a culture medium increases in proportion to the enzymatic activity of intracellular IDO (for example, the Journal of Biological Chemistry (J. Biol. Chem.), vol. 263, pp. 2041-2048 (1988)). […] It is known that kynurenine production is inhibited by IDO inhibitors (for example, the Journal of Clinical Investigation (J. Clin. Invest.), vol. 117, No. 5, pp. 1147-1154 […]), and thus it is expected that Compound (I) also has an inhibitory effect on IDO.
As for `COC1(COc2nc3ccccc3nc2NS(=O)(=O)c2ccccc2Cl)CCOCC1` [Compound 247, 2-chloro-N-{3-[(4-methoxytetrahydro-2H-pyran-4-yl)methoxy]-quinoxalin-2-yl}benzenesulfonamide], the IC50 (usually the concentration needed to halve the response being measured) is 1000 to 10000 nM. Turning to `O=S(=O)(Nc1nc2ccccc2nc1OC(c1cccnc1)C(F)(F)F)c1ccccc1OC(F)(F)F` (centres unmarked) [Compound 151, N-{3-[2,2,2-trifluoro-1-(pyridin-3-yl)ethoxy]quinoxalin-2-yl}-2-(trifluoromethoxy)benzenesulfonamide], the IC50 was less than 1000 nM. Take `CCCS(=O)(=O)Nc1nc2ccccc2nc1OC(c1cccc(C#N)c1)C(F)(F)F` (centres unmarked) [Compound 290, N-{3-[1-(3-cyanophenyl)-2,2,2-trifluoroethoxy]quinoxalin-2-yl}propane-1-sulfonamide]: the half-maximal inhibitory concentration (IC50) was less than 1000 nM. In the case of `Cc1nn(C)c(Cl)c1S(=O)(=O)Nc1nc2ccccc2nc1OC(C1CCOCC1)C(F)(F)F` (centres unmarked) [Compound 120, 5-chloro-1,3-dimethyl-N-{3-[2,2,2-trifluoro-1-(tetrahydro-2H-pyran-4-yl)ethoxy]quinoxalin-2-yl}-1H-pyrazole-4-sulfonamide], the IC50 was less than 1000 nM.

Regarding `CCCCS(=O)(=O)Nc1nc2ccccc2nc1OC(c1cccnc1)C(F)(F)F` (centres unmarked) [Compound 191, N-{3-[2,2,2-trifluoro-1-(pyridin-3-yl)ethoxy]quinoxalin-2-yl}butane-1-sulfonamide], the half-maximal inhibitory concentration (IC50) is less than 1000 nM.

Regarding `CCCS(=O)(=O)Nc1nc2ccccc2nc1OC(c1cncn1C)C(F)(F)F` (centres unmarked) [Compound 277, N-{3-[2,2,2-trifluoro-1-(1-methyl-1H-imidazol-5-yl)ethoxy]-quinoxalin-2-yl}propane-1-sulfonamide], the IC50 was 1000 to 10000 nM. On to `CCCS(=O)(=O)Nc1nc2ccccc2nc1OC(c1ccc(C)nc1)C(F)(F)F` (centres unmarked) [Compound 192, N-{3-[2,2,2-trifluoro-1-(6-methylpyridin-3-yl)ethoxy]-quinoxalin-2-yl}propane-1-sulfonamide], for which the IC50 was less than 1000 nM. On to `CCCS(=O)(=O)Nc1nc2ccccc2nc1OC(C(F)(F)F)C1(F)CCN(C(C)=O)CC1` (centres unmarked) [Compound 354, N-{3-[2,2,2-trifluoro-1-(1-acetyl-4-fluoropiperidin-4-yl)-ethoxy]quinoxalin-2-yl}propane-1-sulfonamide], for which the IC50 was less than 1000 nM. Take `O=S(=O)(Nc1nc2cc3ccccc3cc2nc1OC(c1cccnc1)C(F)(F)F)c1ccccc1Cl` (centres unmarked) [Compound 263, 2-chloro-N-{3-[2,2,2-trifluoro-1-(pyridin-3-yl)ethoxy]-benzo[g]quinoxalin-2-yl}benzenesulfonamide]: the IC50 is less than 1000 nM. Take `O=S(=O)(Nc1nc2ccccc2nc1OC(c1ccc(Cl)cc1)C(F)(F)F)c1ccccc1Cl` (centres unmarked) [Compound 53, 2-chloro-N-{3-[2,2,2-trifluoro-1-(4-chlorophenyl)ethoxy]-quinoxalin-2-yl}benzenesulfonamide]: the IC50 is less than 1000 nM. Turning to `CC(C)(COc1nc2ccccc2nc1NS(=O)(=O)c1ccccc1Cl)c1cccnc1` [Compound 167, 2-chloro-N-{3-[2-methyl-2-(pyridin-3-yl)propoxy]quinoxalin-2-yl}benzenesulfonamide], the concentration for half-maximal inhibition (IC50) is less than 1000 nM. To `Cc1nc(C)c(S(=O)(=O)Nc2nc3ccccc3nc2OC(c2cccnc2)C(F)(F)F)s1` (centres unmarked) [Compound 163, 2,4-dimethyl-N-{3-[2,2,2-trifluoro-1-(pyridin-3-yl)ethoxy]-quinoxalin-2-yl}thiazole-5-sulfonamide] belongs less than 1000 nM; to `CCCS(=O)(=O)Nc1nc2ccccc2nc1OC(C(F)(F)F)C1(C#N)CCOCC1` (centres unmarked) [Compound 351, N-{3-[2,2,2-trifluoro-1-(4-cyanotetrahydro-2H-pyran-4-yl)-ethoxy]quinoxalin-2-yl}propane-1-sulfonamide], less than 1000 nM; to `CCCS(=O)(=O)Nc1nc2ccccc2nc1OC(c1cncc(OC)c1)C(F)(F)F` (centres unmarked) [Compound 334, N-{3-[2,2,2-trifluoro-1-(5-methoxypyridin-3-yl)ethoxy]-quinoxalin-2-yl}propane-1-sulfonamide], less than 1000 nM. With `CC(C)CS(=O)(=O)Nc1nc2ccccc2nc1OC(c1cccnc1)C(F)(F)F` (centres unmarked) [Compound 180, 2-methyl-N-{3-[2,2,2-trifluoro-1-(pyridin-3-yl)ethoxy]-quinoxalin-2-yl}propane-1-sulfonamide], the IC50 was less than 1000 nM.

For `O=S(=O)(Nc1nc2ccncc2nc1OC(c1cccnc1)C(F)(F)F)c1ccccc1Cl` (centres unmarked) [Compound 362, 2-chloro-N-{2-[2,2,2-trifluoro-1-(pyridin-3-yl)ethoxy]-pyrido[3,4-b]pyrazin-2-yl}benzenesulfonamide], the IC50 fell in the range of 1000 to 10000 nM. `CS(=O)(=O)Nc1nc2ccccc2nc1OC(c1cccnc1)C(F)(F)F` (centres unmarked) [Compound 148, N-{3-[2,2,2-trifluoro-1-(pyridin-3-yl)ethoxy]quinoxalin-2-yl}methanesulfonamide]: the IC50 lay within 1000 to 10000 nM. To `Cc1noc(C)c1S(=O)(=O)Nc1nc2ccccc2nc1OC(c1ccccc1)C(F)(F)F` (centres unmarked) [Compound 185, 3,5-dimethyl-N-[3-(2,2,2-trifluoro-1-phenylethoxy)-quinoxalin-2-yl]isoxazole-4-sulfonamide] belongs less than 1000 nM. For the compound `CC(C)(F)C(Oc1nc2ccccc2nc1NS(=O)(=O)c1cccc(Cl)c1Cl)c1cccnc1` (centres unmarked) [Compound 39, 2,3-dichloro-N-{3-[2-fluoro-2-methyl-1-(pyridin-3-yl)-propoxy]quinoxalin-2-yl}benzenesulfonamide], the half-maximal inhibitory concentration (IC50) is less than 1000 nM. As for `O=S(=O)(Nc1nc2ccccc2nc1OC(c1cccnc1)c1cncs1)c1ccccc1Cl` (centres unmarked) [Compound 243, 2-chloro-N-{3-[pyridin-3-yl(thiazol-5-yl)methoxy]-quinoxalin-2-yl}benzenesulfonamide], the IC50 is less than 1000 nM. To `Cc1ncsc1C(Oc1nc2ccccc2nc1NS(=O)(=O)c1ccccc1Cl)C(F)(F)F` (centres unmarked) [Compound 107, 2-chloro-N-{3-[2,2,2-trifluoro-1-(4-methylthiazol-5-yl)-ethoxy]quinoxalin-2-yl}benzenesulfonamide] belongs less than 1000 nM; to `Cc1nn(C)c(Cl)c1S(=O)(=O)Nc1nc2ccccc2nc1OC(c1cccnc1)C1(F)CCOCC1` (centres unmarked) [Compound 87, 5-chloro-1,3-dimethyl-N-{3-[4-fluorotetrahydropyran-4-yl-(pyridin-3-yl)methoxy]quinoxalin-2-yl}-1H-pyrazole-4-sulfonamide], less than 1000 nM; to `N#Cc1ccc(C(Oc2nc3ccccc3nc2NS(=O)(=O)c2ccccc2Cl)C(F)(F)F)cc1` (centres unmarked) [Compound 42, 2-chloro-N-{3-[2,2,2-trifluoro-1-(4-cyanophenyl)ethoxy]-quinoxalin-2-yl}benzenesulfonamide], less than 1000 nM. With `O=S(=O)(Nc1nc2ccccc2nc1OCc1ccc2ccccc2c1)c1ccc(Cl)cc1Cl` [Compound 29, 2,4-dichloro-N-{3-[(2-naphthyl)methoxy]quinoxalin-2-yl}-benzenesulfonamide], the IC50 is less than 1000 nM. Turning to `O=S(=O)(CC1CC1)Nc1nc2ccccc2nc1OC(c1cccnc1)C(F)(F)F` (centres unmarked) [Compound 303, 1-cyclopropyl-N-{3-[2,2,2-trifluoro-1-(pyridin-3-yl)-ethoxy]quinoxalin-2-yl}methanesulfonamide], the IC50 is less than 1000 nM.

With `CCCS(=O)(=O)Nc1nc2ccccc2nc1OC(C(F)(F)F)C1(F)CCOCC1` (centres unmarked) [Compound 350, N-{3-[2,2,2-trifluoro-1-(4-fluorotetrahydro-2H-pyran-4-yl)-ethoxy]quinoxalin-2-yl}propane-1-sulfonamide], the IC50 was less than 1000 nM. To `Cc1cccc2nc(OC(c3cccnc3)C(F)(F)F)c(NS(=O)(=O)c3ccccc3Cl)nc12` (centres unmarked) [Compound 265, 2-chloro-N-{8-methyl-3-[2,2,2-trifluoro-1-(pyridin-3-yl)-ethoxy]quinoxalin-2-yl}benzenesulfonamide] belongs less than 1000 nM; to `CC(C)(C)C(Oc1nc2ccccc2nc1NS(=O)(=O)c1cccc(Cl)c1Cl)c1cccnc1` (centres unmarked) [Compound 37, 2,3-dichloro-N-{3-[2,2-dimethyl-1-(pyridin-3-yl)propoxy]-quinoxalin-2-yl}benzenesulfonamide], less than 1000 nM. Then `O=S(=O)(Nc1nc2ccccc2nc1OC(c1cccnc1)C(F)(F)F)C1CCCC1` (centres unmarked) [Compound 169, N-{3-[2,2,2-trifluoro-1-(pyridin-3-yl)ethoxy]quinoxalin-2-yl}cyclopentanesulfonamide], with less than 1000 nM.
